Patent US20070026465A1, “Method for detecting GAD65 autoreactive T cells newly diagnosed type1 diabetic patients and in the prediabetic period” (priority 2005, published 2007)
“And” between values parts separate entries of the source, which are not always exact repeats. Equal entries are not always repeated.

What was measured:
Format in all cases: cell-based, human
[1] = test system: PBMC of healthy control individuals; experiment: GAD65 HLA class I tetramer staining and flow cytometry of stimulated PBMC, healthy controls; parameters: % CD3+/CD8+/GAD65 reactive T cells, average / % CD3+/CD8+/GAD65 reactive T cells: concentration or dose not given beside the values
[2] = test system: PBMC of newly diagnosed T1D patients; experiment: GAD65 HLA class I tetramer staining and flow cytometry of stimulated PBMC, T1D patients; parameters: % CD3+/CD8+/GAD65 reactive T cells, average / % CD3+/CD8+/GAD65 reactive T cells: concentration or dose not given beside the values
[3] = test system: PBMC of healthy normal controls; experiment: T cell activation (CD69 staining) in stimulated PBMC, healthy controls; conditions: GAD65 peptide treated PBMC, day 6;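 further: GAD65 peptide 10 to 30 µg/ml in culture medium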
Procedure: (§1) PBMC were separated from 5-10 ml heparinized peripheral blood by Ficoll gradient centrifugation (Histopaque, Sigma-Aldrich, St. Luis, Mo., USA). […] This washing step was introduced in the method to remove the GAD65 peptide and therefore reduce the risk of aspecificities in the subsequent procedure of tetramer binding. […] Cells were then harvested and processed for tetramer staining and flow cytometric analysis.
(§2) On day 4 or day 6 from the beginning of culture, 1×10^6 cells were allocated for staining. They were washed by centrifugation at 1500 rpm for 5 min at room temperature in wash buffer [0.1% sodium azide, 2% FBS in PBS] then resuspended in the residual volume (approximately 50 μl). 1 μl of phycoerythrin (PE) labelled GAD65 tetramer was added and incubated in ice for 30^+ min in the dark. […] Cells were then washed twice in phosphate buffer and their staining achieved using a Beckton Dickinson FACSCalibur flow cytometer and analysed with the CellQuest software program. T cell activation was evaluated by staining cells with […] in different multiple staining experiments. […]

[4] = test system: PBMC of newly-diagnosed T1D patients; experiment: T cell activation (CD69 staining) in stimulated PBMC, T1D patients; conditions: GAD65 peptide treated PBMC, day 6;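 further: GAD65 peptide 10 to 30 µg/ml in culture medium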
Procedure: as §1, §2

[5] = test system: CD8+/GAD65 reactive lymphocytes of a T1D patient; experiment: Early-late apoptosis (Annexin V / propidium iodide) in peptide stimulated PBMC
Procedure: At day 4 and day 6 from the beginning of the culture, 1×10^6 cells stimulated with the GAD65 peptide according to the above mentioned protocols were washed in the same washing phosphate buffer as described above and resuspended in the residual volume of approximately 50 μl. 1 μl PE-labelled GAD65 tetramer was used per staining procedure. Cells were then incubated with biotinylated anti-human CD8 MoAb (1:10 dilution, Becton Dickinson) in ice, for at least 30 min, in the dark. They were then washed with washing buffer by centrifugation at 1500 rpm for 5 min at room temperature. 5 μl of streptavidin-(Cy5) conjugate was then added for 30 min at room temperature, in the dark. Cells were then washed in ice cold PBS (2% FBS) by centrifugation at 1500 rpm for 5 min at room temperature. Cell pellet was then suspended in 500 μl of phosphate buffer. 10 μl of cold media binding reagent (Calbiochem, San Diego, Calif., USA) and 1.25 μl of Annexin V-FITC conjugate (Calbiochem) were added according to manufacturer's instructions. […] Staining was then immediately achieved and analysed by flow cytometry. […] Cells were evaluated as necrotic when stained with propidium iodide but negative for Annexin V, cells were evaluated as late apoptotic when propidium iodide positive and binding Annexin V, early apoptotic when propidium iodide negative and Annexin V positive and viable when negative for both stainings.

VMNILLQYV [GAD65 peptide]
increase of the population of CD3+/CD8+/GAD65 reactive T cells (specificity of the response) [1]: no significant increase | % CD3+/CD8+/GAD65 reactive T cells, average ([1]; GAD65-treated PBMC, average of 22 normal controls, day 6): 0.9% | % CD3+/CD8+/GAD65 reactive T cells ([1]; GAD65-treated PBMC, individual normal controls, day 6 of culture): 0.37% and 0.42% and 2% and 0.09% and 0.97% and 0.6% and 8% and 1.21% and 0.25% and 0.9% and 1.03% and 0.49% and 0.23% (2×) and 0.03% and 0.21% and 0.11% and 0.13% and 0.14% and 0.17% and 0.86% and 0.57% | percentage of CD8+/GAD65 reactive lymphocytes ([1]; healthy control donor, day 4, after GAD65 peptide stimulation (FIG. 9 B-C)): very low | % CD3+/CD8+/GAD65 reactive T cells, average ([2]; GAD65 treated PBMC, average of 22 T1D patients, day 6): 30.0% | % CD3+/CD8+/GAD65 reactive T cells ([2]; GAD65 treated PBMC, individual T1D patients, day 6 of culture): 73% and 17% and 12.5% and 14.08% and 1% (2×) and 19% and 98% and 85% and 68% and 22% and 70% and 82% and 21% and 1.35% and 2.64% and 0.81% and 3.19% and 58% and 2.59% and 2.28% and 6.39% | Dot Plot pattern of CD8 expression of CD8+ GAD65 reactive T cells ([2]; T1D patients after GAD65 peptide stimulation, not seen in normal controls): peculiar pattern of low CD8 expression | percentage of CD3+/CD8+/GAD65 reactive T cells compared to IL-2 stimulation ([2]; one T1D patient non-responding at day 6, 2 days peptide then 2 days IL-2, analysis at day 4 (FIG. 8)): significant increase | % CD69+/CD3+/CD8+ T cells, average ([3]; average of normal controls): 12.9% | % CD69+/CD3+/CD8+ T cells ([3]; individual normal controls): 2.1% and 0.75% and 13.51% and 17% and 26% and 13.4% and 18% (2×) and 19% and 1.7% | % CD69/CD3/CD8 positive T cells, average ([4]; average of T1D patients): 18.9% | % CD69/CD3/CD8 positive T cells ([4]; individual T1D patients): 13.5% and 10.94% and 24% and 39% and 28% (2×) and 42% and 18% and 4.63% and 1.5% and 3.2% and 20% and 9.87% and 22% | apoptosis (Annexin V) of CD8+/GAD65 reactive lymphocytes ([5]; T1D patient, day 4 of culture with the GAD65 peptide (FIG. 9 E-F)): shows signs of apoptosis | population of Annexin V positive cells ([5]; same samples, day 6 of GAD65 peptide treatment (FIG. 10)): no longer detectable
